Values after ≈ are worked out from the molar mass of the structure shown. Where a name gives a salt, the structure may show the parent alone. Read-outs that look alike come from different tables or passages of the source.
How the values were obtained:
MOLT-4 cell = assay: Cytotoxicity (CC50) test, WST-8; assay type: cell-based, human
Source text: (§1) For the measurement of the number of cells, tetrazolium salt WST-8 (Cell Counting Kit-8 available as a kit) was employed as the chromophone. The basic principle of the cytotoxicity (CC50) test is set forth below. WST-8 is reduced by intracellular dehydrogenation enzyme to produce soluble formazan. Since the number of cells and the amount of generated formazan is linearly proportional, the number of cells can be readily measured by directly measuring the absorbancy of formazan at 450 nm. The specific procedure for measurement is set forth below. 180 μl of a culture medium was introduced into each of the wells in the range of rows A-D and columns 3-10 in a 96-well flat microtiter plate for diluting the agent. 240 μl of the sample taken at 0 hours from initiation of electrolysis was added to the well of row A, column 2 in the microtiter plate. 240 μl of the sample taken 2 hours from initiation of electrolysis was added to the well of row B, column 2. 240 μl of the sample taken 4 hours from initiation of electrolysis was added to the well of row C, column 2. 240 μl of the sample taken 6 hours from initiation of electrolysis was added to the well of row D, column 2. To produce respective columns of sample dilutions, samples of 60 μl each was taken from the above-described samples of 240 μl. These samples of 60 μl were sequentially added to the right side well to be sufficiently pipeted. This was conducted up to column 10. Two of U-bottom 96-well microtiter plates for cultivation were prepared, and 200 μl of PBS was applied to all the side-most wells. 100 μl of culture medium was introduced into each of the wells of rows B-G, columns 2-9. 150 μl of culture medium was introduced into the wells of columns 10 and 11. Then, 50 μl of cell suspension solution prepared to 5×10^6 cell/ml was introduced into each of the wells of rows B-G, columns 2-9 and column 11. The wells of column 10 were absent of cells. […] Then, the O.D. was measured at 450 nm and 620 nm using a microplate reader.

[1] = tested on: Escherichia coli (coliform bacillus) NIHJ JC-2; assay: Sterilizing activity test of glutaral (MIC, small amount broth dilution, 60 minutes contact); assay type: cell-based
Description: (§2) The sterilizing activity of glutaral was evaluated based on MIC measurement by a small amount broth dilution method, which is the standard method of the Japanese Society of Chemotherapy. In the present example, the presence of bacillus by the bacterial number of survivals after a solution including bacillus was brought into contact with glutaral for a predetermined period of time (60 minutes) taking into account the fact that sterilization is neutralized when glutaral is mixed with the culture medium. The pharmaceutical stock solution disclosed in the standard method was replaced with the sample of the present example for testing. As the culture medium for measuring sensitivity, Cation Supplemented Mueller-Hinton Broth: CSMHB (obtained from EIKEN CHEMICAL CO., LTD.) was used. This CSMHB was dividedly-poured 90 μl each into a U-shaped bottom 96-well microplate. This is called Plate 1. The samples taken 0, 2, 4 and 6 hours from initiation of electrolysis described in the above 1. were prepared. In accordance with the method of [Example 1] recited in the additional rule of the standard method, a diluted solution of sterilized phosphate buffer (PBS) was produced for each sample. In the present example, the test was carried out at 1⁄2 the scale cited in the standard method. The containing amount of glutaral in the first tube was approximately 1000 μg/ml titer. The PBS dilution was dividedly-poured 0.1 ml each into another U-shaped microplate. This is called plate 2. In the present example, Staphylococcus aureus (staphylococcus bacteria) […] and Escherichia coli (coliform bacillus) NIHJ JC-2 strain were employed as the bacilli for testing sensitivity. The bacillus to be tested on an agar media cultured overnight was suspended to 0.5 Mc Farland (approximately 10^8 CFU/ml) and diluted by ten times (approximately 10^7 CFU/ml) with sterilized physiologic saline as the solution including bacillus for inoculation. The water to be treated and the solution including bacillus were inoculated and mixed 0.01 ml each in each well of Plate 1 within 15 minutes from preparation of the solution including bacillus. In Plate 1, a culture medium not containing the agent was poured into 1-2 wells as the control of growth of bacillus. At an elapse of 60 minutes from the mixing, 10 μl of the solution of plate 2 was each introduced into the same well of Plate 1. Then, cultivation was conducted for 18 to 24 hours at 35° C. The criteria of Positive Growth (+) and Inhibited Growth (-) after cultivation was determined as set forth below. Positive growth (+) was accepted when cloudiness was identified by the naked eye or a precipitate of at least 1 mm in diameter, or when two or more masses of precipitate, even though the diameter thereof is below 1 mm, was identified. Inhibited growth (-) was accepted when cloudiness by the naked eye was not identified, or when only one precipitate with a diameter below 1 mm was identified.

[2] = tested on: Staphylococcus aureus (staphylococcus bacteria) 209P; assay: as above; assay type: cell-based
Description: as §2

[3] = Gas chromatograph evaluation of decomposition of glutaral by electrolysis; assay type: physicochemical; conditions: six hours from initiation of electrolysis
[4] = tested on: Escherichia coli (coliform bacillus) NIHJ JC-2; assay: Test of antibacterial activity of epirubicin hydrochloride (MIC, small amount broth dilution); assay type: cell-based; conditions: read-out: minimum inhibitory concentration (MIC)
Description: (§3) The pharmaceutical stock solution disclosed in the standard method was replaced with the samples of the present example for testing. As the culture medium for measuring sensitivity, Cation Supplemented Mueller-Hinton Broth: CSMHB (obtained from EIKEN CHEMICAL CO., LTD.) was employed. This CSMHB was poured 90 μl each into a U-shaped bottom 96-well microplate. Samples taken 0, 2, 4 and 6 hours from initiation of electrolysis described in the above 2 were prepared. A diluted solution of respective samples was prepared in accordance with the standard method. […] The bacilli used in the present example were identical to the two types of bacillus employed in Example 1, i.e. Staphylococcus aureus (staphylococcus bacteria) FDA […] and Escherichia coli (coliform bacillus) NIHJ JC-2. […] This solution was inoculated approximately 0.005 ml in each well of the plate set forth above within 15 minutes from preparation of the solution including bacillus. A medium not containing the agent was poured into 1-2-wells as the control of the development of bacillus. Cultivation was conducted for 18-24 hours at 35° C.

[5] = tested on: Staphylococcus aureus (staphylococcus bacteria) FDA 209P; assay: as above; assay type: cell-based; conditions: for MIC: Staphylococcus aureus, FDA209P, read-out: minimum inhibitory concentration (MIC)
Description: as §3

[6] = Cytotoxicity (CC50) test, WST-8; assay type: cell-based, human; conditions: human; electrolyzing time 0 hours; Molt-4 cells, cultured three days
Source text: as §1

[7] = Mutagenicity test (umu-test); assay type: cell-based
Description: The test was conducted according to the instruction manual included in the kit of “Umu-test” from Japan Immunoresearch Laboratories Co., Ltd.

[8] = 6 hours from initiation of electrolysis, calculated
[9] = electrolysis for 6 hours or more, from formula value

OCl [hypochlorous acid]
contribution to cytotoxicity (MOLT-4 cell): almost no contribution to cytotoxicity

O=CCCCC=O [glutaral]
minimum inhibitor concentration obtained from approximation formula 2 [1, 8]: 4600 µg/mL (≈ 45.9 mM) | minimum inhibitor concentration relative to before electrolysis [1, 9]: approximately 1/37 | minimum inhibitor concentration ([1]; electrolyzing time 0 hours): 31.25 µg/mL (≈ 0.312 mM) | relative value of the minimum inhibitor concentration (when preceding electrolysis is 1) ([1]; electrolyzing time 0 hours): 1 | minimum inhibitor concentration ([1]; electrolyzing time 2 hours): 125 µg/mL (≈ 1.25 mM) | relative value of the minimum inhibitor concentration (when preceding electrolysis is 1) ([1]; electrolyzing time 2 hours): ¼ | minimum inhibitor concentration ([1]; electrolyzing time 4 hours): >1000 µg/mL | relative value of the minimum inhibitor concentration (when preceding electrolysis is 1) ([1]; electrolyzing time 4 hours): < 1/32 | minimum inhibitor concentration ([1]; electrolyzing time 6 hours): >1000 µg/mL | relative value of the minimum inhibitor concentration (when preceding electrolysis is 1) ([1]; electrolyzing time 6 hours): < 1/32 | minimum inhibitor concentration obtained from approximation formula 1 [2, 8]: 1150 µg/mL (≈ 11.5 mM) | minimum inhibitor concentration relative to before electrolysis [2, 9]: approximately 1/18 | minimum inhibitor concentration ([2]; electrolyzing time 0 hours): 62.5 µg/mL (≈ 0.624 mM) | relative value of the minimum inhibitor concentration (when preceding electrolysis is 1) ([2]; electrolyzing time 0 hours): 1 | minimum inhibitor concentration ([2]; electrolyzing time 2 hours): 125 µg/mL (≈ 1.25 mM) | relative value of the minimum inhibitor concentration (when preceding electrolysis is 1) ([2]; electrolyzing time 2 hours): ½ | minimum inhibitor concentration ([2]; electrolyzing time 4 hours): 500 µg/mL (≈ 4.99 mM) | relative value of the minimum inhibitor concentration (when preceding electrolysis is 1) ([2]; electrolyzing time 4 hours): ⅛ | minimum inhibitor concentration ([2]; electrolyzing time 6 hours): >1000 µg/mL | relative value of the minimum inhibitor concentration (when preceding electrolysis is 1) ([2]; electrolyzing time 6 hours): < 1/16 | GC peak area (RT 3.14 minutes) relative to sample of 0 hours [3]: 1/25

O=S([O-])([O-])=S.[Na+].[Na+] [sodium thiosulfate]
contribution to cytotoxicity (MOLT-4 cell; in the electrolyzed samples, Molt-4 cells): almost no contribution to cytotoxicity

COc1cccc2c1C(=O)c1c(O)c3c(c(O)c1C2=O)C[C@@](O)(C(=O)CO)C[C@@H]3O[C@H]1C[C@H](N)[C@@H](O)[C@H](C)O1 [epirubicin hydrochloride]
MIC ([4]; NIHJJC2, electrolyzing time 0 hours): > 200 µg/mL | MIC ([4]; NIHJJC2, electrolyzing time 2 hours): > 200 µg/mL | MIC ([4]; NIHJJC2, electrolyzing time 4 hours): > 200 µg/mL | MIC ([4]; NIHJJC2, electrolyzing time 6 hours): > 200 µg/mL | MIC ([5]; electrolyzing time 0 hours): 1.56 µg/mL | MIC ([5]; electrolyzing time 2 hours): 25 µg/mL | MIC ([5]; electrolyzing time 4 hours): > 200 µg/mL | MIC ([5]; electrolyzing time 6 hours): > 200 µg/mL | relative MIC value (MIC at 0 hour set as 1) ([5]; electrolyzing time 0 hours): 1 | relative MIC value (MIC at 0 hour set as 1) ([5]; electrolyzing time 2 hours): 1/16 | CC50 at 3 days [6]: 0.066 µg/mL | concentration of the tube showing the mutagenicity induction level (fifth tube) ([7]; 0 hours from initiation of electrolysis): 24.7 μ/ml | umu-test absorbancy of the first tube (O.D.620 nm) ([7]; at all of 0, 2, 4 and 6 hours from initiation of electrolysis): exceeded 0.2 | umu-test result (positivity / negativity) ([7]; at all of 0, 2, 4 and 6 hours from initiation of electrolysis, cut off value approximately 0.18): positivity | mutagenicity after the electrolytic process relative to before ([7]; lines diluted by three times, 1/3^4): 1/81
